Reference: PubChem BioAssay AID182 (DTP/NCI, 2004)
Values joined by “and” are separate entries in the source; they are usually repeats but may differ in a detail not shown here. Identical values can stand only once. Inconclusive results and toxic doses are left out. Starred links: 1 amine or outer side, 2 acyl side, 3 side chain; linkers in the order of their positions; H or OH if unused. Positions of bridges follow the written chain, without caps; N, C: chain ends. Non-standard residues stand in square brackets, D forms with d. Residues, ends and D or L forms follow the SMILES beside them. Chains are numbered I, II in the order given. Actinocin(9to1) = Cc1c2oc3c(C)ccc(C(=O)[*:1])c3nc-2c(C(=O)[*:2])c(N)c1=O; aThr = C[C@H](O)[C@H](N)C(=O)O; NMeV = CN[C@H](C(=O)O)C(C)C; Sar = CNCC(=O)O

System: BDF1 mice, P388/ADR leukemia ip, median survival T/C
Assay: NCI In Vivo Anticancer Drug Screen. Data for tumor model P388 Leukemia resistant to Adriamycin; NSC 123127, Developed at Scr 06 and 41 (intraperitoneal) in B6D2F1 (BDF1) mice
Conditions: endpoint: median survival time, higher = longer survival
Protocol: The antitumor activity of compounds was measured in mice bearing transplantable tumors. Survival or tumor size were measured and the results are expressed as the measurement made in the treated group (T) divided by the measurement made in the vehicle treated control group (C). The tumor model used in this assay is P388 Leukemia resistant to Adriamycin; NSC 123127, Developed at Scr 06 and 41 (intraperitoneal) in B6D2F1 (BDF1) mice

Cc1c2oc3c(C)ccc(C(=O)N[C@@H]4C(=O)N[C@H](C(C)C)C(=O)N5CCC[C@H]5C(=O)N(C)CC(=O)N(C)[C@@H](C(C)C)C(=O)O[C@H]4C)c3nc-2c(C(=O)N[C@@H]2C(=O)N[C@H](C(C)C)C(=O)N3CCC[C@H]3C(=O)N(C)CC(=O)N(C)[C@@H](C(C)C)C(=O)O[C@H]2C)c(N)c1=O (I: [aThr][dV]P[Sar][NMeV] / II: [aThr][dV]P[Sar][NMeV]; ester I:1-I:C, II:1-II:C; linker I:N-II:N via Actinocin(9to1))
T/C (dose: 0.3 mg/kg/injection, schedule: Q04DX003 (ip), vehicle: saline): 173 % of control | T/C (dose: 108.0 micrograms/kg/injection, schedule: Q04DX003 (ip), vehicle: saline + alcohol): 111 % of control and 201 % of control | T/C (dose: 180.0 micrograms/kg/injection, schedule: Q04DX003 (ip), vehicle: saline + alcohol): 118 % of control | T/C (dose: 300.0 micrograms/kg/injection, schedule: Q04DX003 (ip), vehicle: saline + alcohol): 116 % of control and 117 % of control | T/C (dose: 500.0 micrograms/kg/injection, schedule: Q04DX003 (ip), vehicle: saline + alcohol): 88 % of control

CC(CN1CC(=O)NC(=O)C1)N1CC(=O)NC(=O)C1 (centres undefined)
T/C (dose: 86.4 mg/kg/injection, schedule: Q04DX003 (ip), vehicle: Klucel (hydroxypropylcellulose) (HPC)): 106 % of control | T/C (dose: 100.0 mg/kg/injection, schedule: Q04DX003 (ip), vehicle: Klucel (hydroxypropylcellulose) (HPC)): 100 % of control | T/C (dose: 108.0 mg/kg/injection, schedule: Q04DX003 (ip), vehicle: Klucel (hydroxypropylcellulose) (HPC)): 104 % of control | T/C (dose: 144.0 mg/kg/injection, schedule: Q04DX003 (ip), vehicle: Klucel (hydroxypropylcellulose) (HPC)): 122 % of control | T/C (dose: 180.0 mg/kg/injection, schedule: Q04DX003 (ip), vehicle: Klucel (hydroxypropylcellulose) (HPC)): 102 % of control | T/C (dose: 200.0 mg/kg/injection, schedule: Q04DX003 (ip), vehicle: Klucel (hydroxypropylcellulose) (HPC)): 93 % of control | T/C (dose: 216.0 mg/kg/injection, schedule: Q04DX003 (ip), vehicle: Klucel (hydroxypropylcellulose) (HPC)): 107 % of control | T/C (dose: 300.0 mg/kg/injection, schedule: Q04DX003 (ip), vehicle: Klucel (hydroxypropylcellulose) (HPC)): 102 % of control | T/C (dose: 400.0 mg/kg/injection, schedule: Q04DX003 (ip), vehicle: Klucel (hydroxypropylcellulose) (HPC)): 93 % of control

CCC1(O)CC2CN(CCc3c([nH]c4ccccc34)C(C(=O)OC)(c3cc4c(cc3OC)N(C)C3C(O)(C(=O)NCCSSCCNC(=O)C5(O)C(O)C6(CC)C=CCN7CCC8(c9cc(C%10(C(=O)OC)CC%11CN(CCc%12c%10[nH]c%10ccccc%12%10)CC(O)(CC)C%11)c(OC)cc9N(C)C58)C76)C(O)C5(CC)C=CCN6CCC43C65)C2)C1 (centres undefined)
T/C (dose: 432.0 micrograms/kg/injection, schedule: Q04DX003 (ip), vehicle: saline): 111 % of control | T/C (dose: 720.0 micrograms/kg/injection, schedule: Q04DX003 (ip), vehicle: saline): 124 % of control | T/C (dose: 2000.0 micrograms/kg/injection, schedule: Q04DX003 (ip), vehicle: saline): 116 % of control

C[n+]1ccc(Nc2ccc(NC(=O)c3ccc(Nc4cc[n+](C)c5ccc(N)cc45)cc3)cc2)cc1
T/C (dose: 7.2 mg/kg/injection, schedule: Q01DX009 (ip), vehicle: water): 163 % of control

Nc1nncs1
T/C (dose: 173.0 mg/kg/injection, schedule: Q04DX003 (ip), vehicle: other): 199 % of control | T/C (dose: 288.0 mg/kg/injection, schedule: Q04DX003 (ip), vehicle: other): 90 % of control

COc1cccc2c1C(=O)c1c(O)c3c(c(O)c1C2=O)C[C@@](O)(C(C)=O)C[C@@H]3OC1CC(N(C)C)C(O)C(C)O1 (some centres undefined)
T/C (dose: 3.46 mg/kg/injection, schedule: Q04DX003 (ip), vehicle: water): 114 % of control | T/C (dose: 5.76 mg/kg/injection, schedule: Q04DX003 (ip), vehicle: water): 121 % of control | T/C (dose: 9.6 mg/kg/injection, schedule: Q04DX003 (ip), vehicle: water): 113 % of control | T/C (dose: 16.0 mg/kg/injection, schedule: Q04DX003 (ip), vehicle: water): 104 % of control
